In patent US6342498B1, “Arylpiperazines as serotonin reuptake inhibitors and 5-HT1Dα antagonists” (Eli Lilly and Company, priority 1997, dated 2002) one finds melting point data, which are given here for 14 molecules.

Molecules are shown by their SMILES. Structures can show the parent of a compound that is named as a salt.

As for `COc1ccccc1N1CCN(CCCCN2CC=C(c3c[nH]c4cc(Cl)ccc34)CC2)CC1`, the melting point (usually the temperature, or range, at which the solid turns liquid) was 131 to 133 °C. To `COc1ccccc1N1CCN(CCNCCCN2CCC(c3c[nH]c4cc(Cl)ccc34)CC2)CC1` (as salt: hydrochloride) [Example 10, N-(2-(4-(2-methoxyphenyl)piperazin-1-yl)eth-1-yl)-N-3-(4-(6-chloroindol-3-yl)-piperidin-1-yl)prop-1-ylamine tetrahydrochloride] belongs 91 to 95 °C. The figure for `COc1ccccc1N1CCN(CCCCCN2CCC(c3c[nH]c4cc(F)ccc34)CC2)CC1` (as salt: hydrochloride) [Example 19, 1-(2-methoxyphenyl) -4-(5-(4-(6-fluoroindole-3-yl) -piperidin-1-yl)pent-1-yl)piperazine trihydrochloride] is 113 to 115 °C; for `COc1ccccc1N1CCN(CCCCCN2CCC(c3c[nH]c4cc(Cl)ccc34)CC2)CC1` (as salt: hydrochloride) [Example 20, 1-(2-methoxyphenyl) -4-(5-(4-(6-chloroindole-3-yl) -piperidin-1-yl)pent-1-yl)piperazine trihydrochloride] it is 139 to 141 °C; for `COc1ccccc1N1CCN(CCCCCCN2CCC(c3c[nH]c4cc(Cl)ccc34)CC2)CC1` (as salt: hydrochloride) [Example 21, 1-(2-methoxyphenyl)-4-(6-(4-(6-chloroindol-3-yl)-piperidin-1-yl)hex-1-yl)piperazine trihydrochloride] it is 185 to 187 °C. The molecule `COc1ccccc1N1CCN(CCCCCCN2CCC(c3c[nH]c4cc(F)ccc34)CC2)CC1` (as salt: hydrochloride) [Example 22, 1-(2-methoxyphenyl)-4-(6-(4-(6-fluoroindol-3-yl)-piperidin-1-yl)hex-1-yl)piperazine trihydrochloride] gave a melting point of 145 to 147 °C. `COc1ccccc1N1CCN(CCNC(=O)CCN2CC=C(c3c[nH]c4cc(F)ccc34)CC2)CC1` [Example 1, N-(2-(4-(2-methoxyphenyl)piperazin-1-yl)eth-1-yl)-3-(4-(6-fluoroindol-3-yl)-1,2,3,6-tetrahydropyridin-1-yl)propanamide] returned a melting point of 175 to 177 °C. The figure for `COc1ccccc1N1CCN(CCNC(=O)CCN2CC=C(c3c[nH]c4cc(Cl)ccc34)CC2)CC1` [Example 2, N-(2-(4-(2-methoxyphenyl)piperazin-1-yl)eth-1-yl)-3-(4-(6-chloroindol-3-yl)-1,2,3,6-tetrahydropyridin-1-yl)propanamide] is 181 to 183 °C; for `COc1ccccc1N1CCN(CCNCCCN2CC=C(c3c[nH]c4cc(F)ccc34)CC2)CC1` [Example 6, N-(2-(4-(2-methoxyphenyl)piperazin-1-yl)eth-1-yl)-N3-(4-(6-fluoroindol-3-yl)-1,2,3,6-tetrahydropyridin-1-yl)prop-1-ylamine] it is 82 to 84 °C. The figure for `COc1ccccc1N1CCN(CCNCCCN2CC=C(c3c[nH]c4cc(Cl)ccc34)CC2)CC1` [Example 7, N-(2-(4-(2-methoxyphenyl)piperazin-1-yl)eth-1-yl)-N-3-(4-(6-chloroindol-3-yl)-1,2,3,6-tetrahydropyridin-1-yl)prop-1-ylamine] is 71 to 73 °C; for `COc1ccccc1N1CCN(CCNCCN2CC=C(c3c[nH]c4cc(Cl)ccc34)CC2)CC1` [Example 12, N-(2-(4-(2-methoxyphenyl)piperazin-1-yl)eth-1-yl), N-2-(4-(6-chloroindol-3-yl)-1,2,3,6-tetrahydropyridin-1-yl)eth-1-ylamine] it is 78 to 80 °C; for `COc1ccccc1N1CCN(CCCCCCN2CC=C(c3c[nH]c4cc(F)ccc34)CC2)CC1` [Example 14, 1-(2-methoxyphenyl)-4-(6-(4-(6-fluoroindole-3-yl)-1,2,3,6-tetrahydropyridin-1-yl)hex-1-yl)piperazine] it is 105 to 107 °C. With `COc1ccccc1N1CCN(CCCCCN2CC=C(c3c[nH]c4cc(Cl)ccc34)CC2)CC1` [Example 15, 1-(2-methoxyphenyl)-4-(5-(4-(6-chloroindole-3-yl)-1,2,3,6-tetrahydropyridin-1-yl)pent-1-yl)piperazine], the melting point lay in the range of 126 to 128 °C. The figure for `COc1ccccc1N1CCN(CCCCCN2CC=C(c3c[nH]c4cc(F)ccc34)CC2)CC1` [Example 16, 1-(2-methoxyphenyl)-4-(5-(4-(6-fluoroindole-3-yl)-1,2,3,6-tetrahydropyridin-1-yl)pent-1-yl)piperazine] is 69 to 71 °C.
